{
  "source": "patent US7858579B2",
  "about": "“Thermoprotective compositions of pkg pathway inhibitors and method of use thereof” (priority 2005, dated 2010)",
  "key": {"[1]": {"system": "ventilatory pattern generator of the locust, Locusta migratoria", "experiment": "Hyperthermic failure and recovery of locust ventilatory motor pattern", "type": "in vivo", "details": "for thermotolerance of neural function (failure temperature, FIG. 7A): 1 μM KT5823, 1 μM Cantharidin, 40 μM 8-Bromo cGMP", "protocol": "To determine if the thermoprotective consequences of PKG manipulations also apply to central circuitry and motor pattern generation, the thermotolerance of the ventilatory pattern generator was measured (Robertson, R. M. 2004) of the locust, Locusta migratoria. […] Ventilatory arrhythmias (Arr) in untreated animals prior to hyperthermic failure are rarely seen in preparations treated with the PKG inhibitor (FIG. 4.). At failure, temperature was returned to room temperature and time to recovery recorded. Pretreated controls recover after 180.2±42.4 sec whereas KT5823-pretreated animals recover after 62.3±13.4 sec. […] Once ventilatory pattern failure occurs during a temperature ramp, heating was terminated and the motor pattern was monitored until recovery.\nMale locusts aged 4-6 weeks were dissected and pinned on a cork board; overlying tissue was removed exposing the metathoracic ganglion. Standard locust saline was superfused and heated at a rate of 5° C./2 min. until motor pattern failure, after which saline was allowed to return to room temperature. Ventilatory motor patterns were monitored using an EMG electrode on muscle 161 in the second abdominal segment. Pressure injection (32±13.5 nL, 10 psi, 150 ms) into the ventilatory neuropil was with a glass microelectrode filled with either 1 μM KT5823 in standard locust saline or locust saline alone (sham treatment) 10 min. (pretreated) before, or during (acutely treated; ˜3 min. before failure in controls) the temperature ramp.\nFIGS. 7 to 8 illustate hyperthermic failure of locust ventilatory motor pattern generation. FIG. 8 illustrates sample traces of the ventilatory rhythm recorded from an abdominal expiratory muscle in a control locust. The ventilatory arrhythmias prior to failure should be noted. At failure, temperature was allowed to return to room temperature and time to recovery was recorded. The ventilatory motor pattern after recovery is at a lower frequency than just prior to failure because the temperature is lower. […] Significant differences were found across all groups (ANOVA F(9,105)=13.160, p<0.001). […] Here too significant differences were found across all groups (ANOVA […], p<0.001) N>5 for all treatments. […] Error bars represent SEM."}, "[2]": {"system": "ventilatory pattern generator of the locust, Locusta migratoria", "experiment": "Hyperthermic failure and recovery of locust ventilatory motor pattern", "type": "in vivo"}, "febrile seizures": {"system": "febrile seizures", "details": "intermittent treatment of febrile seizures; cited from earlier work"}},
  "data": [
    {"smiles": "CC12C(=O)OC(=O)C1(C)C1CCC2O1", "note": "(stereo not shown) [Cantharidin, Hexahydro-3a,7a-dimethyl-4,7-epoxyisobenzofuran-1,3-dione]", "values": [
      {"measurement": "thermotolerance in HS animals given 8-Bromo cGMP plus Cantharidin", "setting": "[1]; 1 μM Cantharidin with 40 μM 8-Bromo cGMP, HS animals", "result": "counteracted the effect of 8-Bromo cGMP in HS animals thereby inducing maximal thermotolerance"},
      {"measurement": "thermotolerance of neural function (failure temperature, FIG. 7A)", "setting": "[1]", "result": "increased the thermotolerance of neural function"}
    ]},
    {"smiles": "COC(=O)[C@@]1(OC)C[C@H]2O[C@]1(C)n1c3ccccc3c3c4c(c5c6ccccc6n2c5c31)C(=O)N(C)C4", "note": "[KT5823]", "values": [
      {"measurement": "thermotolerance of neural function (failure temperature, FIG. 7A)", "setting": "[1]", "result": "increased the thermotolerance of neural function"},
      {"measurement": "acute effect of injection on ventilatory rhythm frequency, burst duration or duty cycle", "setting": "[1]; 1 μM pressure injection, data not shown", "result": "no acute effect"},
      {"measurement": "preparations with arrhythmias before failure", "setting": "[1]; during temperature ramp, controls 60%", "result": 11, "unit": "%"},
      {"measurement": "thermal protection of the circuit, pretreated", "setting": "[2]; 25 nL of 1 μM injected 10 minutes before increasing temperature", "result": "thermoprotection and rapid recovery of the circuit was observed"},
      {"measurement": "thermal protection of the circuit, acutely treated", "setting": "[2]; one 25 nL dose injected during temperature ramp 3 min. before failure", "result": "extremely rapid and equally pronounced thermal protection of the circuit was observed"},
      {"measurement": "time to recovery of ventilatory motor pattern after failure", "setting": "[2]; pretreated: 25 nL of 1 μM injected into ventilatory neuropil 10 min before temperature ramp, return to room temperature at failure", "result": "62.3 ± 13.4", "unit": "s"}
    ]},
    {"smiles": "CN1C(=O)CN=C(c2ccccc2)c2cc(Cl)ccc21", "note": "[diazepam]", "values": [
      {"measurement": "reduction in risk per patient year", "setting": "febrile seizures", "result": 44, "unit": "%"}
    ]},
    {"smiles": "Nc1nc2c(nc(Br)n2[C@@H]2O[C@@H]3COP(=O)(O)O[C@H]3[C@H]2O)c(=O)[nH]1", "note": "[8-Bromo cGMP, 8-bromo-guanosine 3′,5′-cyclic monophosphate]", "values": [
      {"measurement": "thermotolerance of neural function (failure temperature, FIG. 7A)", "setting": "[1]", "result": "did not increase the thermotolerance of the circuit"},
      {"measurement": "effect on protective effects of heat shock preconditioning", "setting": "[1]; 40 μM, HS animals (3 hr at 45° C.)", "result": "abolished the protective effects of heat shock preconditioning"}
    ]},
    {"smiles": "Nc1ncnc2c1ncn2[C@@H]1O[C@@H]2COP(O)(=S)O[C@H]2[C@H]1O", "note": "(stereo partly shown) [RP-cAMP]", "values": [
      {"measurement": "failure temperature compared with controls", "setting": "[1]; PKA inhibitor, data not shown", "result": "no significant differences"},
      {"measurement": "recovery time compared with controls", "setting": "[1]; PKA inhibitor, data not shown", "result": "no significant differences"}
    ]}
  ]
}
